Series [1] deals with T1, 14-3-3ε binding to CDC25A (Homo sapiens, UniProt P62258).
T1 construct: endogenous in cells; host or cells: SCC12B.2
T1 sequence (P62258 1-255): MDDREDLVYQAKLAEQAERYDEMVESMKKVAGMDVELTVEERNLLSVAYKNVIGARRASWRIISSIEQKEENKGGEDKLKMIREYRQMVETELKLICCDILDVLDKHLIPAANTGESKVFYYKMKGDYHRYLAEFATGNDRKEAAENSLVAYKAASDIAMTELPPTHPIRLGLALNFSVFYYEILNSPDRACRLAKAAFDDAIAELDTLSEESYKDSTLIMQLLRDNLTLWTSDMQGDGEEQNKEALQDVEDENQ
Description: Co-immunoprecipitation / immunoblot of CDC25A bound to 14-3-3ε. The settings on record: SCC12B.2 cells; for amount of CDC25A on immunoblots of immunoprecipitated 14-3-3ε: pS 30 μM, pT printed 2004, 48 hours, vs vehicle, P≤0.05. It counts as cell-based. The method, then:
Co-Immunoprecipitation (Co-IP) was performed using a Dynabeads Protein G Immunoprecipitation kit (Life Technologies, Carlsbad, Calif., USA). Beads were coupled to antibodies targeting 14-3-3ε (Fisher Scientific, Waltham, Mass., USA) or CDC25A (Santa Cruz Biotechnology, Dallas, Tex., USA) at a ratio of 7 μg of antibody for every 1 mg of beads according to the manufacturers protocol. SCC12B.2 cells were treated with vehicle (20 mM Tris buffer, pH 7.5) or fresh peptide (pS or pT) daily at the IC50 concentration for 48 hours in Opti-MEM I Reduced Serum Medium (Invitrogen) and collected by trypsinization. One hundred mg of cells were lysed in 1×IP buffer supplemented with 100 mM sodium chloride, 2 mM dithiothreitol, 1 mM magnesium chloride and protease/phosphatase inhibitors. Immunoprecipitation reactions were carried out using 1.5 mg of antibody-coupled beads incubated with 100 mg of cell lysate at 4° C. for 30 minutes. Negative controls were immunoprecipitation reactions using beads coupled to IgG isotype control antibody (rabbit), and whole lysate from immunoprecipitation input was loaded directly onto a gel was used as a positive control.
Protein was collected by either standard whole-cell lysis using ice-cold radioimmunoprecipitation assay (RIPA) lysis buffer supplemented with protease (Roche Life Scientific) and phosphatase inhibitors (NaF, Na3VO4) or by nuclear/cytosolic extraction using the NE-PER Nuclear and Cytoplasmic Protein Extraction Reagent Kit according to the manufacturer's protocol (Pierce, Rockford, Ill., USA). Tissue protein was extracted by using a tissue grinder to lyse cells in 100 μL of RIPA lysis buffer for every 1 mg of tissue. […] Protein concentration was assessed with the Bradford assay. […] Bands were detected using horseradish peroxidase-conjugated secondary antibodies (IgG mouse or rabbit) (Cell Signaling) and visualized using western lightning plus chemiluminescent reagent (MidSci, Valley Park, Mo., USA) and signal read on a Chemidoc XRS Molecular Imager (Bio-Rad Laboratories, Hercules, Calif., USA).
Background: In western blotting, separated proteins are transferred to a membrane and probed.

In series [2] the test system is normal human epidermal keratinocytes (nHEK). Description: Neutral Red Cell Viability assay in normal keratinocytes. The format is cell-based. The settings on record: FIG. 1A dashed line. The method, then:
Human skin cancer cell lines (SCC12B.2, SCC13, SRB12) were maintained in Dulbecco's modified Eagle's medium (DMEM) (Invitrogen, Carlsbad, Calif., USA) supplemented with 1% penicillin (10 000 U/ml)-streptomycin (10 000 μg/ml) (PenStrep) (Invitrogen) and 10% fetal bovine serum (Gemini Bio-Products, Sacramento, Calif., USA) at 37° C. and 5% CO2. Normal human epidermal keratinocytes (nHEK) (Thermo Scientific, Waltham, Mass., USA) isolated from neonatal foreskin were cultured in EpiLife medium (Invitrogen) supplemented with human keratinocyte growth supplement (Invitrogen) and 1% PenStrep (Invitrogen). […]
To determine the half maximal inhibitory concentration (IC50) for ES1P2 in SCC12B.2 and nHEK cells, cells were plated in a 96-well plate at a density of 6×10^3 cells/well. […] Neutral Red Cell Viability assays were performed, where absorbance was measured using a Cytation 5 multi-mode plate reader (BioTek). […]

“Also recorded” adds a separate entry of the source. Peptide text beside a SMILES is read from it.

As to `CC(=O)N[C@@H](CCCNC(=N)N)C(=O)N[C@H](C(=O)N[C@@H](CCCCN)C(=O)N[C@@H](CO)C(=O)N[C@@H](CCCNC(=N)N)C(=O)N[C@H](C(=O)N[C@@H](Cc1c[nH]c2ccccc12)C(=O)N[C@@H](C)C(=O)NCC(=O)N[C@@H](CCC(=O)O)C(=O)N[C@@H](CCCCN)C(=O)N[C@@H](CO)C(=O)N[C@@H](CCCCN)C(=O)N[C@@H](CCCNC(=N)N)C(N)=O)[C@@H](C)OP(=O)(O)O)[C@@H](C)O` [pT, Ac-Arg-Thr-Lys-Ser-Arg-Thr(PO3^2−)-Trp-Ala-Gly-Glu-Lys-Ser-Lys-Arg-NH2] (HELM PEPTIDE1{[ac].R.T.K.S.R.[C[C@@H](OP(=O)(O)O)[C@H](N[*:1])C(=O)[*:2]].W.A.G.E.K.S.K.R.[am]}$$$$V2.0), the “amount of CDC25A on immunoblots of immunoprecipitated 14-3-3ε” value in series [1] is reported as “decreases the amount of CDC25A”.

As to `NCCCC[C@H](NC(=O)[C@H](Cc1c[nH]c2ccccc12)NC(=O)[C@H](Cc1ccc(O)cc1)NC(=O)[C@@H](N)Cc1c[nH]c2ccccc12)C(N)=O` [ES1P2, Trp-Tyr-Trp-Lys-NH2] (H-WYWK-NH2), the “toxicity to normal keratinocytes” value in series [2] is listed as “killed SCC cells but not normal keratinocytes; also recorded: nontoxic”.

In the case of `CSCC[C@H](NC(=O)[C@H](CCCNC(=N)N)NC(=O)[C@@H]1CCCN1C(=O)[C@H](C)NC(=O)[C@H](COP(=O)(O)O)NC(=O)[C@H](CC(N)=O)NC(=O)[C@H](CCC(N)=O)NC(=O)[C@H](CCCNC(=N)N)NC(=O)[C@H](CCC(N)=O)NC(=O)[C@@H](NC(C)=O)[C@@H](C)O)C(=O)N[C@@H](CC(C)C)C(=O)N[C@@H](CO)C(=O)N[C@@H](CO)C(=O)N[C@@H](CC(N)=O)C(N)=O` [pS, Ac-Thr-Gln-Arg-Gln-Asn-Ser-(PO3^2−)-Ala-Pro-Arg-Met-Leu-Ser-Ser-Asn-NH2] (HELM PEPTIDE1{[ac].T.Q.R.Q.N.[O=C([C@H](COP(=O)(O)O)N[*:1])[*:2]].A.P.R.M.L.S.S.N.[am]}$$$$V2.0), the “14-3-3ε precipitation, pS-treated compared to pT-treated samples” value in series [1] (48 hours) was “less 14-3-3ε precipitation”. Moreover, the “amount of CDC25A on immunoblots of immunoprecipitated 14-3-3ε” value in series [1] is given as “decreases the amount of CDC25A”.

Source of the values: patent US11685766B2, “14-3-3 targeting peptides for cancer treatment” (Creighton University, priority 2019, dated 2023).
